Data as given in US8575167B2, “Spiro compounds having stearoyl-CoA desaturase action” (Takeda Pharmaceutical Company Limited, priority 2007, dated 2013).

Biological target: T1, SCD (Rattus norvegicus, UniProt P07308)
T1 construct: an enzyme reaction using rat liver microsome (20 μg) was performed for 15 min; from tissue; host or cells: rat liver microsome fraction
T1 sequence (P07308 1-358): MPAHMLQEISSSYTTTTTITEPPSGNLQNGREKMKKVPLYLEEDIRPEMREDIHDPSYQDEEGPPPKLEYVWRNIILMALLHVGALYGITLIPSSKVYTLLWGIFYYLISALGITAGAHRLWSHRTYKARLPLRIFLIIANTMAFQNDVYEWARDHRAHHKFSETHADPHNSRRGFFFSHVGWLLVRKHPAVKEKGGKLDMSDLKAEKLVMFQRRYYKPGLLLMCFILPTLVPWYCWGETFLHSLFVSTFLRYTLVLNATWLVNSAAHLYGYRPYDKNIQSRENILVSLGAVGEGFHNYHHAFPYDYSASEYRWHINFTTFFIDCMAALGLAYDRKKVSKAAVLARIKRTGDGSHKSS
Experiment: Measurement of SCD inhibitory activity using microsome (TLC detection system)
Format: biochemical
Details: rat liver microsome (20 μg), 15 min, [14C] stearoyl-CoA; test compound (10 mM) diluted to 3/1000 with 3× buffer, 10 μL in 30 μL reaction
Experimental: (Test Method: Measurement of SCD Inhibitory Activity Using Microsome (TLC Detection System))
A test compound (10 mM) diluted with DMSO in advance was secondarily diluted to 3/1000 with 3× buffer (300 mmol/L NaH2PO4 [pH 7.4], 450 mM KCl, 30 mM NaF, 9 mM MgCl2, 4.5 mM glutathione [reduced form], 0.3% BSA [fatty acid free, SIGMA]). The test compound (10 μL) diluted with the assay buffer was dispensed to a PP 96-deep well block, and a microsome fraction (10 μL) diluted with a microsome buffer was added thereto. The enzyme reaction was started by the addition of 10 μL of [^14C] stearoyl-CoA (American Radiolabeled Chemicals [ARC], Inc.) diluted to 10 μCi/mL with 9 mmol/L NADH. For evaluation of the compound, an enzyme reaction using rat liver microsome (20 μg) was performed for 15 min. The reaction was quenched by the addition of 10 μL of 2.5N NaOH, a plate seal was applied, and the reaction mixture was incubated overnight in a dry heater set to 65° C. to allow saponification. Solvent extraction of fatty acid was based on the Bligh&Dyer method (1). Formic acid:methanol:chloroform (1:6:3) (200 μL) was added, the state of single layer was maintained, the mixture was sufficiently stirred, and pure water (120 μL) was added to allow separation into two layers. The lower chloroform layer (10 μL) was spotted on reversed-phase TLC plate (RP-18, 1154230001, Merck Japan, Ltd.) and developed with acetonitrile:pure water:acetic:acid (95:4.5:0.5). The TLC plate was dried and transferred onto an Imaging Plate (Fuji Photo Film Co., Ltd.) for not less than 5 hr. For detection, BAS-5000 (Fuji Photo Film Co., Ltd) was used and the obtained spot images were converted to numerical values using Multi Gauge Ver2.3 (Fuji Photo Film Co., Ltd), based on which the SCD activity inhibitory rate (%) was determined.

SMILES | SCD activity inhibitory rate (%)
Cc1noc(-c2ccc(N3CCC4(C3)OCc3ccccc34)nn2)n1 (stereo not drawn) [Example 177, 1′-[6-(3-methyl-1,2,4-oxadiazol-5-yl)pyridazin-3-yl]-3H-spiro[2-benzofuran-1,3′-pyrrolidine]] | 99%
Cc1noc(-c2ccc(N3CCC4(C3)OCc3ccccc34)nn2)n1 (stereo not drawn) [Example 178, 1′-[6-(3-methyl-1,2,4-oxadiazol-5-yl)pyridazin-3-yl]-3H-spiro[2-benzofuran-1,3′-pyrrolidine]] | 97%
Cc1noc(-c2ccc(N3CCC4(COc5ccccc54)C3)nn2)n1 (stereo not drawn) [Example 179 (long retention time), 1′-[6-(3-methyl-1,2,4-oxadiazol-5-yl)pyridazin-3-yl]spiro[1-benzofuran-3,3′-pyrrolidine]] | 96%
Cc1noc(-c2ccc(N3CCC4(COc5ccccc54)C3)nn2)n1 (stereo not drawn) [Example 179 (short retention time), 1′-[6-(3-methyl-1,2,4-oxadiazol-5-yl)pyridazin-3-yl]spiro[1-benzofuran-3,3′-pyrrolidine]] | 100%

Same assay, conditions: rat liver microsome (20 μg), 15 min, [14C] stearoyl-CoA; test compound (10 mM) diluted to 3/1000 with 3× buffer, 10 μL in 30 μL reaction; read-out: SCD activity inhibitory rate (%)

SMILES | inhibition at 10 µM
Cc1nsc(-c2ccc(N3CCC4(CC3)CN(c3ccccc3)C(=O)CO4)nn2)n1 [Example 32, 9-[6-(3-methyl-1,2,4-thiadiazol-5-yl)pyridazin-3-yl]-4-phenyl-1-oxa-4,9-diazaspiro[5.5]undecan-3-one] | 94%
Cc1nsc(-c2ccc(N3CCC4(CC3)NC(=O)c3ccccc3N4)nn2)n1 [Example 6, 1-[6-(3-methyl-1,2,4-thiadiazol-5-yl)pyridazin-3-yl]-1′H-spiro[piperidine-4,2′-quinazolin]-4′(3′H)-one] | 95%
Cc1noc(-c2ccc(N3CCC4(Cc5ccccc5O4)C3)nn2)n1 (stereo not drawn) [Example 170, 1′-[6-(3-methyl-1,2,4-oxadiazol-5-yl)pyridazin-3-yl]-3H-spiro[1-benzofuran-2,3′-pyrrolidine]] | 100%
Cc1nsc(-c2ccc(N3CCC4(C=Cc5ccccc5O4)CC3)nn2)n1 [Example 20, 1′-[6-(3-methyl-1,2,4-thiadiazol-5-yl)pyridazin-3-yl]spiro[chromene-2,4′-piperidine]] | 98%
O=C(NCCc1cccnc1)c1ccc(N2CCC3(C=Cc4ccccc43)CC2)nn1 [Example 74, N-(2-(pyridin-3-yl)ethyl)-6-(1′H-spiro[indene-1,4′-piperidin]-1′-yl)pyridazine-3-carboxamide] | 98%
Cc1nsc(-c2ccc(N3CCC4(C=Cc5ccccc54)CC3)nn2)n1 [Example 2, 1′-[6-(3-methyl-1,2,4-thiadiazol-5-yl)pyridazin-3-yl]spiro[indene-1,4′-piperidine]] | 99%
OCc1nc(-c2ccc(N3CCC4(CC3)COc3ccccc34)nn2)no1 [Example 148, {3-[6-(1′H-spiro[1-benzofuran-3,4′-piperidin]-1′-yl)pyridazin-3-yl]-1,2,4-oxadiazol-5-yl}methanol] | 100%
C1=CC2(CCN(c3ccc(-c4ncns4)nn3)CC2)c2ccccc21 [Example 11, 1′-[6-(1,2,4-thiadiazol-5-yl)pyridazin-3-yl]spiro[indene-1,4′-piperidine]] | 93%
Cc1noc(-c2ccc(N3CCC4(CC3)CN(c3ccc(F)cc3)C(=O)O4)nn2)n1 [Example 47, 3-(4-fluorophenyl)-8-[6-(3-methyl-1,2,4-oxadiazol-5-yl)pyridazin-3-yl]-1-oxa-3,8-diazaspiro[4.5]decan-2-one] | 93%
O=C(N[C@H]1C[C@@H]1c1ccccc1)c1ccc(N2CCC3(C=Cc4ccccc43)CC2)nn1 [Example 126, N-[(1S,2R)-2-phenylcyclopropyl]-6-(1′H-spiro[indene-1,4′-piperidin]-1′-yl)pyridazine-3-carboxamide] | 98%
OCc1noc(-c2ccc(N3CCC4(CC3)COc3ccccc34)nn2)n1 [Example 143, {5-[6-(1′H-spiro[1-benzofuran-3,4′-piperidin]-1′-yl)pyridazin-3-yl]-1,2,4-oxadiazol-3-yl}methanol] | 100%
CC1CSC(c2ccc(N3CCC4(CC3)COc3ccccc34)nn2)=N1 (stereo not drawn) [Example 146, 1′-[6-(4-methyl-4,5-dihydro-1,3-thiazol-2-yl)pyridazin-3-yl]spiro[1-benzofuran-3,4′-piperidine]] | 97%
O=C(NCC(O)Cc1ccccc1)c1ccc(N2CCC3(C=Cc4ccccc43)CC2)nn1 (stereo not drawn) [Example 86, N-(2-hydroxy-3-phenylpropyl)-6-(1′H-spiro[indene-1,4′-piperidin]-1′-yl)pyridazine-3-carboxamide] | 100%
O=C(NCC(O)c1ccccc1)c1ccc(N2CCC3(C=Cc4ccccc43)CC2)nn1 (stereo not drawn) [Example 60, N-(2-hydroxy-2-phenylethyl)-6-(1′H-spiro[indene-1,4′-piperidin]-1′-yl)pyridazine-3-carboxamide] | 98%
Cc1noc(-c2ccc(N3CCC4(C3)C(=O)N(C)c3ccccc34)nn2)n1 (stereo not drawn) [Example 159, 1-methyl-1′-[6-(3-methyl-1,2,4-oxadiazol-5-yl)pyridazin-3-yl]spiro[indole-3,3′-pyrrolidin]-2(1H)-one] | 99%
Cc1noc(-c2ccc(N3CCC4(COc5ccccc54)C3)nn2)n1 (stereo not drawn) [Example 51, 1′-[6-(3-methyl-1,2,4-oxadiazol-5-yl)pyridazin-3-yl]spiro[1-benzofuran-3,3′-pyrrolidine]] | 97%
Cc1nsc(-c2ccc(N3CCC4(CC3)COc3ccccc34)nn2)n1 [Example 17, 1′-[6-(3-methyl-1,2,4-thiadiazol-5-yl)pyridazin-3-yl]spiro[1-benzofuran-3,4′-piperidine]] | 100%
Cc1nsc(-c2ccc(N3CCC4(CC3)NC(=O)c3ccccc3O4)nn2)n1 [Example 31, 1′-[6-(3-methyl-1,2,4-thiadiazol-5-yl)pyridazin-3-yl]spiro[1,3-benzoxazine-2,4′-piperidin]-4(3H)-one] | 92%
Cc1nsc(-c2ccc(N3CCC4(COc5ccccc54)C3)nn2)n1 (stereo not drawn) [Example 50, 1′-[6-(3-methyl-1,2,4-thiadiazol-5-yl)pyridazin-3-yl]spiro[1-benzofuran-3,3′-pyrrolidine]] | 99%
Cc1nc(-c2ccc(N3CCC4(C3)OCc3ccccc34)nn2)no1 (stereo not drawn) [Example 150, 1′-[6-(5-methyl-1,2,4-oxadiazol-3-yl)pyridazin-3-yl]-3H-spiro[2-benzofuran-1,3′-pyrrolidine]] | 99%
Cc1nsc(-c2ccc(N3CCC4(CC3)Cc3ccccc3O4)nn2)n1 [Example 4, 1′-[6-(3-methyl-1,2,4-thiadiazol-5-yl)pyridazin-3-yl]-3H-spiro[1-benzofuran-2,4′-piperidine]] | 97%
O=C(CNC(=O)c1ccc(N2CCC3(C=Cc4ccccc43)CC2)nn1)c1ccccc1 [Example 55, N-(2-oxo-2-phenylethyl)-6-(1′H-spiro[indene-1,4′-piperidin]-1′-yl)pyridazine-3-carboxamide] | 99%
Cc1noc(-c2ccc(N3CCC4(C3)OCc3ccccc34)nn2)n1 (stereo not drawn) [Example 43, 1′-[6-(3-methyl-1,2,4-oxadiazol-5-yl)pyridazin-3-yl]-3H-spiro[2-benzofuran-1,3′-pyrrolidine]] | 100%
OCc1noc(-c2ccc(N3CCC4(COc5ccccc54)C3)nn2)n1 (stereo not drawn) [Example 157, {5-[6-(1′H-spiro[1-benzofuran-3,3′-pyrrolidin]-1′-yl)pyridazin-3-yl]-1,2,4-oxadiazol-3-yl}methanol] | 100%
Cc1nsc(-c2ccc(N3CCC4(CC3)CC(=O)c3ccccc3O4)nn2)n1 [Example 5, 1′-[6-(3-methyl-1,2,4-thiadiazol-5-yl)pyridazin-3-yl]spiro[chromene-2,4′-piperidin]-4(3H)-one] | 100%
OCc1noc(-c2ccc(N3CCC4(C3)OCc3ccccc34)nn2)n1 (stereo not drawn) [Example 156, {5-[6-(1′H,3H-spiro[2-benzofuran-1,3′-pyrrolidin]-1′-yl)pyridazin-3-yl]-1,2,4-oxadiazol-3-yl}methanol] | 100%
